Among the test systems are NCI-H522 lung; MCF7 breast; KM12 colon; MDA-MB-231 breast; OVCAR-5 ovarian; K-562 leukemia; A498 renal; HT29 colon; U251 CNS; M14 melanoma; OVCAR-3 ovarian.
Experiment in all cases: NCI tumour cell line growth inhibition, 48 h

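Grown in 96-well plates, cells were treated for 48 hours with each compound at five concentrations. Insufficient inhibition: endpoint recorded as highest concentration tested. TGI: total growth inhibition.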

As to `COc1ccc(/C=c2\[nH]c3nc(=O)c(N4CCOCC4)c(N)n3c2=O)cc1`, the TGI with NCI-H522 lung, with MCF7 breast, with KM12 colon, in the test with MDA-MB-231 breast, with OVCAR-5 ovarian and in the test on K-562 leukemia was greater than 100 µM in each case. In addition, the TGI in the test with A498 renal, in the test with HT29 colon, in the test with U251 CNS and in the test with M14 melanoma was greater than 100 µM each time.
For `COc1cc2nc(-c3ccc4ccccc4c3)[nH]c(=O)c2cc1OC`, the TGI in the test with NCI-H522 lung, with MCF7 breast, with OVCAR-3 ovarian, in the test with KM12 colon, with MDA-MB-231 breast and in the test on OVCAR-5 ovarian was greater than 100 µM throughout. In addition, the TGI with K-562 leukemia, in the test on A498 renal, in the test on HT29 colon and in the test on M14 melanoma was greater than 100 µM throughout.
On to `O=C1CCC2(CCO1)OCCO2`, for which the TGI with NCI-H522 lung, with MCF7 breast, in the test on OVCAR-3 ovarian, in the test on KM12 colon, in the test with MDA-MB-231 breast and with OVCAR-5 ovarian was greater than 100 µM each time. The TGI with K-562 leukemia, in the test on HT29 colon, in the test on U251 CNS and in the test on M14 melanoma was greater than 100 µM each time.
For the compound `O=CC(O)C(O)C(O)C(O)C(=O)NCCCCCCCCCCCCNC(=O)C(O)C(O)C(O)C(O)C=O` (centres undefined), the TGI in the test on NCI-H522 lung, in the test on MCF7 breast, in the test with OVCAR-3 ovarian, in the test on KM12 colon, in the test on MDA-MB-231 breast and in the test on OVCAR-5 ovarian was greater than 100 µM in each case. In addition, the TGI with A498 renal, in the test with HT29 colon, with U251 CNS and in the test on M14 melanoma was greater than 100 µM throughout.
With `CC1(C)OCC(C(O)C2OC(C)(C)OC2C=O)O1` (centres undefined), the TGI with MCF7 breast, with OVCAR-3 ovarian, in the test on KM12 colon, with MDA-MB-231 breast, with OVCAR-5 ovarian and in the test on K-562 leukemia was greater than 100 µM in each case. Besides, the TGI with A498 renal, in the test on HT29 colon, with U251 CNS and in the test on M14 melanoma was greater than 100 µM each time.
Regarding `Cc1nc2c3c(ncn2n1)Oc1c(c(-c2ccccc2)nn1-c1ccccc1)C3c1ccc(Cl)cc1` (centres undefined), the TGI in the test on MCF7 breast, in the test on OVCAR-3 ovarian, in the test with KM12 colon, in the test with MDA-MB-231 breast, in the test with OVCAR-5 ovarian and with K-562 leukemia was greater than 100 µM each time. Besides, the TGI in the test on A498 renal, in the test with HT29 colon, in the test on U251 CNS and with M14 melanoma was greater than 100 µM each time.
For `O=[N+]([O-])c1ccc(S[C@@H]2[C@H]3c4c(-c5ccccc5)[nH]c(-c5ccccc5)c4[C@@H]2C[C@H]3Cl)cc1`, the TGI was 14.1 µM in the test with NCI-H522 lung; 16.5 µM in the test with MCF7 breast; 35.8 µM in the test with OVCAR-3 ovarian; 12.3 µM in the test on KM12 colon; greater than 100 µM with MDA-MB-231 breast; greater than 100 µM in the test on OVCAR-5 ovarian. For the same compound, the TGI in the test on A498 renal was 89 µM; in the test on HT29 colon it was greater than 100 µM; in the test on U251 CNS, greater than 100 µM; with M14 melanoma it was greater than 100 µM.
On to `CCc1c(Cc2cccc3ccccc23)n2c(nc1=O)SCC2OCCO` (centres undefined), for which the TGI in the test with NCI-H522 lung, with MCF7 breast, in the test on KM12 colon, in the test with MDA-MB-231 breast, in the test on OVCAR-5 ovarian and in the test with K-562 leukemia was greater than 100 µM each time. The TGI with A498 renal, with HT29 colon, in the test with U251 CNS and in the test with M14 melanoma was greater than 100 µM each time.
In the case of `CCOC(=O)C1(C(=O)OCC)[C@H](c2ccccc2)C2=NO[C@@H]3CCC[C@H]1[C@H]23`, the TGI is greater than 100 µM with NCI-H522 lung; greater than 100 µM in the test with MCF7 breast; 96.8 µM in the test on OVCAR-3 ovarian; greater than 100 µM in the test with KM12 colon; greater than 100 µM with MDA-MB-231 breast; greater than 100 µM in the test with OVCAR-5 ovarian. The TGI in the test on K-562 leukemia, with HT29 colon, in the test with U251 CNS and with M14 melanoma was greater than 100 µM in each case.
Regarding `Clc1ccc(Cc2nc3ccccc3nc2-c2cccc(Br)c2)cc1`, the TGI in the test with NCI-H522 lung was 3.62 µM; in the test with MCF7 breast, 11.3 µM; in the test with OVCAR-3 ovarian, 5.76 µM; in the test on KM12 colon, 33.7 µM; in the test with MDA-MB-231 breast it was 14.1 µM; with OVCAR-5 ovarian it was 16.6 µM. Further, the TGI with K-562 leukemia came to 8.46 µM; with HT29 colon it was 6.13 µM; in the test on U251 CNS, 20.9 µM; with M14 melanoma, 5.17 µM.
As to `O=C(NCc1cccc(C(F)(F)F)c1)c1cc2sccc2nc1C(F)(F)F`, the TGI in the test on NCI-H522 lung, with MCF7 breast, in the test on OVCAR-3 ovarian, in the test on KM12 colon, in the test on MDA-MB-231 breast and in the test with OVCAR-5 ovarian was greater than 100 µM each time. Also, the TGI in the test on K-562 leukemia, in the test on HT29 colon, in the test on U251 CNS and in the test on M14 melanoma was greater than 100 µM in each case.
On to `CCOP(=O)(OCC)C(Nc1cccc(F)c1)c1ccccc1` (centres undefined), for which the TGI with NCI-H522 lung, in the test on MCF7 breast, in the test on OVCAR-3 ovarian, in the test on KM12 colon, in the test on MDA-MB-231 breast and with K-562 leukemia was greater than 100 µM in each case. Further, the TGI in the test on A498 renal, with HT29 colon, in the test on U251 CNS and in the test on M14 melanoma was greater than 100 µM each time.
For `COc1cc2c(cc1OCCCC(=O)Nc1cc(C(=O)Nc3cc(C(=O)Nc4cc(C(=O)NCCCN(C)C)n(C)n4)n(C)n3)n(C)n1)N=CC1CCCN1C2=O` (centres undefined), the TGI in the test on MCF7 breast was greater than 100 µM; in the test on OVCAR-3 ovarian it was greater than 100 µM; in the test with KM12 colon it was 47 µM; with MDA-MB-231 breast, 55.5 µM; in the test with OVCAR-5 ovarian, 72.2 µM; in the test with K-562 leukemia, greater than 100 µM. Also, the TGI in the test with A498 renal is 42.8 µM; in the test with HT29 colon it was 51.3 µM; in the test with U251 CNS it was greater than 100 µM; in the test with M14 melanoma, 95.2 µM.
Turning to `N#Cc1nc(CCCCCN2C(=O)c3ccccc3C2=O)oc1N`, the TGI with NCI-H522 lung is 75.2 µM; with MCF7 breast, greater than 100 µM; with OVCAR-3 ovarian, greater than 100 µM; with KM12 colon, greater than 100 µM; with MDA-MB-231 breast, greater than 100 µM; with OVCAR-5 ovarian, greater than 100 µM. Besides, the TGI with K-562 leukemia, with HT29 colon, in the test with U251 CNS and with M14 melanoma was greater than 100 µM throughout.
As for `O=C1NC(=O)/C(=C/c2ccc(S(=O)(=O)N/N=C/c3ccc(Cl)cc3)cc2)N1`, the TGI with MCF7 breast, in the test on OVCAR-3 ovarian, in the test with KM12 colon, in the test on MDA-MB-231 breast, with OVCAR-5 ovarian and with K-562 leukemia was greater than 100 µM each time. In addition, the TGI with A498 renal, with HT29 colon, in the test on U251 CNS and with M14 melanoma was greater than 100 µM each time.
`Cc1ccc(C(=O)O)c(CC2Cc3c(C)cccc3C2=O)c1` (centres undefined): the TGI in the test with NCI-H522 lung, in the test on MCF7 breast, in the test on OVCAR-3 ovarian, in the test with KM12 colon, in the test with MDA-MB-231 breast and in the test on OVCAR-5 ovarian was greater than 100 µM in each case. Besides, the TGI in the test with K-562 leukemia, in the test on HT29 colon, in the test with U251 CNS and in the test on M14 melanoma was greater than 100 µM in each case.
On to `Cc1ccc(S(=O)(=O)NNC(=O)c2cc(C)ccc2NC(=O)C23CC4CC(CC(C4)C2)C3)cc1`, for which the TGI was 76.3 µM with NCI-H522 lung; greater than 100 µM in the test with MCF7 breast; greater than 100 µM in the test with OVCAR-3 ovarian; greater than 100 µM in the test on KM12 colon; greater than 100 µM in the test with MDA-MB-231 breast; greater than 100 µM with OVCAR-5 ovarian. Further, the TGI with K-562 leukemia, in the test on HT29 colon, in the test on U251 CNS and with M14 melanoma was greater than 100 µM in each case.
Consider `N/N=C1/C2CN3CCN(C2)CC1(c1ccc([N+](=O)[O-])cc1)C3`, for which the TGI in the test on NCI-H522 lung, in the test with MCF7 breast, in the test on OVCAR-3 ovarian, with KM12 colon, in the test on MDA-MB-231 breast and in the test with OVCAR-5 ovarian was greater than 100 µM in each case. Besides, the TGI in the test with K-562 leukemia, in the test on A498 renal, with HT29 colon and in the test on U251 CNS was greater than 100 µM throughout.
As for `N#CC(C#N)=C1C(C#N)=C(N)NC12OCCO2`, the TGI in the test on NCI-H522 lung, in the test with MCF7 breast, with KM12 colon, in the test on MDA-MB-231 breast, with OVCAR-5 ovarian and in the test with K-562 leukemia was greater than 100 µM in each case. Also, the TGI with A498 renal, in the test on HT29 colon, in the test with U251 CNS and in the test on M14 melanoma was greater than 100 µM throughout.
On to `C[C@@H](O)C(=O)N1[C@@H]2CC3CC[C@]2(CS1(=O)=O)C3(C)C`, for which the TGI in the test on MCF7 breast, in the test on OVCAR-3 ovarian, with KM12 colon, in the test on MDA-MB-231 breast, in the test with OVCAR-5 ovarian and with K-562 leukemia was greater than 100 µM throughout. The TGI with HT29 colon, in the test on U251 CNS and in the test with M14 melanoma was greater than 100 µM each time.

The record behind these values is PubChem BioAssay (NCI).
